{"source": "patent US20130150346A1", "about": "“Use of FAAH Inhibitors for Treating Parkinson's Disease and Restless Legs Syndrome” (Ironwood Pharmaceutical, Inc., priority 2010, published 2013)", "format_in_all_cases": "in vivo, common marmosets (Callithrix jacchus)", "key": {"FAAH": {"system": "FAAH", "test": "Plasma FAAH substrate levels (AEA, OEA, PEA) by LC-MS/MS in MPTP-lesioned marmosets treated with URB597", "method": "(§1) Six common marmosets (Callithrix jacchus; female; weight, 350-500 g (Harlan, Madison, Wis., USA)) were kept under conditions of controlled temperature (25±2° C.) and a 12-hour light/dark cycle (lights on 6:30 a.m.). Animals were group housed and had access to food, fresh-fruit supplements and water ad libitum and their home cage environment was enriched with primate toys, perches and auditory stimuli. Prior to start of studies, animals were acclimatized to handling, blood collection and administration of treatments (oral syringe feeding and subcutaneous injection) as well as transfer to observation cages for assessment of behavior. A parkinsonian syndrome was induced by once-daily subcutaneous administration of MPTP hydrochloride (Sigma, Canada; 2 mg/kg base concentration in 0.9% saline) for 5 consecutive days. Following this, animals were allowed to recover for 12 weeks to allow parkinsonian symptoms to develop and stabilize. […] Treatment-related complications including dyskinesia and psychosis-like behaviors were evoked by twice-daily treatment with L-DOPA p.o. (as Prolopa®, Roche Canada, Ontario, equivalent to 15 mg/kg L-DOPA and 3.5 mg/kg benserazide) for a minimum of 30 days. […] Disord. 21:839-846; Visanji et al. (2008) Mov. Disord. 23:1922-1925; Visanji et al (2009) Neurobiol Dis. 35: 184-192]. After this time, the animals were used in several studies to evaluate potential anti-parkinsonian and anti-dyskinetic agents. A minimum period of two weeks was allowed between completing any prior study and commencing this study, a period in excess of ten half-lives since administration of any previously employed experimental drug. Throughout the course of the study, on days not requiring plasma sampling or behavioral observations, animals were treated once daily with oral L-DOPA therapy, given at 10:00 a.m. to maintain stable levels of complications. Marmosets treated with MPTP as described in this example are referred to as MPTP-lesioned marmosets.\n(§2) MPTP hydrochloride (Sigma, Canada) was dissolved in 0.9% NaCl sterile solution to a concentration of 0.2 mg/ml (freebase) and administered at 1 ml/kg. Maintenance L-DOPA, administered as Prolopa® capsules (Roche, Mississauga, ON, Canada) containing 50 mg L-DOPA and 12.5 mg benserazide (freebase) was dissolved in Gatorade sports beverage (The Gatorade Company, Chicago, Ill.) prior to oral administration by syringe at a volume of 10 ml/kg. On days of behavioral assessment, L-DOPA (20 mg/kg, freebase) was prepared from the methyl ester form (Sigma, Canada) in combination with benserazide hydrochloride (5 mg/kg, freebase, Sigma, Canada) dissolved in 0.9% sterile saline containing 0.1% ascorbate (Sigma, Canada) and 0.05% absolute ethanol. URB597 (Cayman Chemical, Ann Arbor, Mich.) was formulated in a vehicle containing 50% corn oil (Professional Compounding Centers of America (PCCA), Houston, Tex.) and 50% nutritional drink Ensure™ (Abbott Nutrition, Chicago, Ill.) to make the suspension palatable for marmoset oral dosing. Requisite amounts of URB597 were weighed into sterile 50 ml polypropylene tubes (for the 3, 10, 30 and 60 mg/kg doses, 12, 40, 120 and 240 mg were weighed respectively). Then, 10 ml Corn oil was added and mixed until homogenous. Next, 10 ml Ensure™ was added and the mixture mixed gently at first, vortexed and finally sonicated (Ultrasonic Dismembrator, Fisher Scientific model 100, ⅛″) on a medium setting for 30 sec to ensure homogeneity of the suspension. URB597 or vehicle was dosed orally at a volume of 5 ml/kg body weight.\nThe effect of oral treatment of MPTP-lesioned marmosets with either vehicle or URB597 (3, 10, 30 or 60 mg/kg) on plasma levels of specific endogenous FAAH substrates was assessed. Levels of the endocannabinoid AEA, in addition to the non-cannabinoid fatty acid amides N-palmitoyl-ethanolamide (PEA) and N-oleoyl-ethanolamide (OEA), were measured by LC-MS/MS assays (described below)."}, "MPTP-lesioned marmosets [1]": {"system": "MPTP-lesioned marmosets", "test": "Motor activity (passive infra-red sensors: total activity, high activity counts and time) in MPTP-lesioned marmosets", "method": "as §1\n(§3) To assess the effect of treatment on plasma FAAH substrate level, total activity, high activity time and count, data were analyzed using a parametric repeated-measures (RM) 1-way analysis of variance (ANOVA) followed by a Student Newman-Keuls Multiple Comparison post hoc test. To assess the effect of treatment on plasma L-DOPA level a paired, two-tailed t-test was used. All FAAH (AEA, OEA, PEA) subbstrate and L-DOPA plasma level data and activity data are presented as the group mean and SEM For measures of parkinsonian disability, dyskinesia and psychosis, data were analyzed via Friedman's test with Dunn's Multiple Comparison post hoc test. […] In all cases, p<0.05 was taken to represent a significant difference.\nas §2, with “homogenous.” for “homogenous. Next, 10 ml Ensure™ was added and the mixture mixed gently at first, vortexed and finally sonicated (Ultrasonic Dismembrator, Fisher Scientific model 100, ⅛″) on a medium setting for 30 sec to ensure homogeneity of the suspension. URB597 or vehicle was dosed orally at a volume of 5 ml/kg body weight.”"}, "MPTP-lesioned marmosets [2]": {"system": "MPTP-lesioned marmosets", "test": "Rating of parkinsonian disability, dyskinesia and psychosis in MPTP-lesioned marmosets", "method": "as §1, §3\nas §2, with “homogenous.” for “homogenous. Next, 10 ml Ensure™ was added and the mixture mixed gently at first, vortexed and finally sonicated (Ultrasonic Dismembrator, Fisher Scientific model 100, ⅛″) on a medium setting for 30 sec to ensure homogeneity of the suspension. URB597 or vehicle was dosed orally at a volume of 5 ml/kg body weight.”"}, "[3]": {"conditions": "URB597 10 mg/kg p.o. (two doses), four hours after oral administration, mean±SEM, n=6"}, "[4]": {"conditions": "mean of the 4 doses studied (3, 10, 30, 60 mg/kg p.o.) ±SEM"}, "[5]": {"conditions": "URB597 10 mg/kg p.o. + L-DOPA 20 mg/kg s.c., 2-4 h, p<0.05"}, "[6]": {"conditions": "URB597 10 mg/kg p.o. + L-DOPA 20 mg/kg s.c., 2-4 h, p>0.05"}, "[7]": {"conditions": "URB597 10 mg/kg p.o. given alone (vehicle s.c.), p>0.05"}, "[8]": {"conditions": "URB597 10 mg/kg p.o. + L-DOPA 20 mg/kg s.c., 2-4 h, p>0.05 cf. L-DOPA alone"}}, "data": [{"smiles": "NC(=O)c1cccc(-c2cccc(OC(=O)NC3CCCCC3)c2)c1", "note": "[URB597]", "values": [{"measurement": "mean plasma level of AEA", "setting": "FAAH; [3]", "value": "5.0 ± 0.45", "unit": "ng/mL"}, {"measurement": "mean plasma level of OEA", "setting": "FAAH; [3]", "value": "7.7 ± 0.78", "unit": "ng/mL"}, {"measurement": "mean plasma level of PEA", "setting": "FAAH; [3]", "value": "7.0 ± 0.27", "unit": "ng/mL"}, {"measurement": "FAAH inhibition suggested by fatty acid amide elevations (no dose response)", "setting": "FAAH; all four doses 3 mg/kg to 60 mg/kg p.o.", "value": "complete inhibition of FAAH at all dose levels studied"}, {"measurement": "mean fold change of plasma AEA compared to vehicle treatment", "setting": "FAAH; [4]", "value": "10.3±0.3", "unit": "fold"}, {"measurement": "mean fold change of plasma OEA compared to vehicle treatment", "setting": "FAAH; [4]", "value": "7.8±0.2", "unit": "fold"}, {"measurement": "mean fold change of plasma PEA compared to vehicle treatment", "setting": "FAAH; [4]", "value": "1.8±0.1", "unit": "fold"}, {"measurement": "reduction of L-DOPA-induced total activity compared to L-DOPA alone", "setting": "MPTP-lesioned marmosets [1]; [5]", "value": 32, "unit": "%"}, {"measurement": "reduction of high activity counts evoked by L-DOPA", "setting": "MPTP-lesioned marmosets [1]; [5]", "value": 52, "unit": "%"}, {"measurement": "reduction of high activity time evoked by L-DOPA", "setting": "MPTP-lesioned marmosets [1]; [5]", "value": 48, "unit": "%"}, {"measurement": "high activity counts and high activity time compared to normal, unlesioned animals", "setting": "MPTP-lesioned marmosets [1]; [6]", "value": "not significantly different"}, {"measurement": "total activity relative to normal, un-lesioned animals", "setting": "MPTP-lesioned marmosets [1]; [6]", "value": "119 % of normal"}, {"measurement": "time after which total activity counts were no longer significantly different compared to vehicle (s.c.)-treated animals", "setting": "MPTP-lesioned marmosets [1]; URB597 10 mg/kg p.o. + L-DOPA 20 mg/kg s.c., 6 h time course", "value": 2.5, "unit": "h"}, {"measurement": "effect on total activity and high activity cf. vehicle", "setting": "MPTP-lesioned marmosets [1]; [7]", "value": "did not modify"}, {"measurement": "total activity counts", "setting": "MPTP-lesioned marmosets [1]; URB597 10 mg/kg p.o. in combination with L-DOPA 20 mg/kg s.c., 2-4 h, mean±SEM, n=6", "value": "1879±332", "unit": "counts"}, {"measurement": "level of psychosis", "setting": "MPTP-lesioned marmosets [2]; URB597 10 mg/kg p.o. + L-DOPA 20 mg/kg s.c., 2-4 h", "value": "mild to moderate"}, {"measurement": "effect of URB597 on L-DOPA-induced dyskinesia", "setting": "MPTP-lesioned marmosets [2]; [8]", "value": "did not modify"}, {"measurement": "effect of URB597 on L-DOPA-induced psychosis", "setting": "MPTP-lesioned marmosets [2]; [8]", "value": "did not modify"}, {"measurement": "effect of URB597 on anti-parkinsonian actions of L-DOPA", "setting": "MPTP-lesioned marmosets [2]; [8]", "value": "did not modify"}, {"measurement": "dyskinesia score (median)", "setting": "MPTP-lesioned marmosets [2]; URB597 10 mg/kg p.o. + L-DOPA 20 mg/kg s.c., summed 2-4 h, IQR 13-29, n=6", "value": 18}, {"measurement": "parkinsonian disability score (median)", "setting": "MPTP-lesioned marmosets [2]; URB597 10 mg/kg p.o. + L-DOPA 20 mg/kg s.c., summed 2-4 h, maximum 432, IQR 65-114, n=6", "value": 78}, {"measurement": "effect on parkinsonian disability, dyskinesia or psychosis cf. vehicle", "setting": "MPTP-lesioned marmosets [2]; [7]", "value": "did not modify"}]}]}
